We go through 94 molecules from ChEMBL document CHEMBL3507680, “University of Dundee, Gates Library screen for HepG2 cell viability”.

The data set in a line: Human HepG2 cell viability assay in 384 well format. The format is toxicity, cell-based. Details: dose 125 nL, time 70.5 hour; concentration not given beside the values. The following applies: HepG2 cells, read-out: Inhibition.

In the case of `COCCNc1c(-c2ccc(C)cc2)c(=O)c1=O`, the cytotoxicity at 70.5 h was -9.49%.
For the molecule `COCCCNc1c(-c2ccc(C)cc2)c(=O)c1=O`, the cytotoxicity at 70.5 h is -6.65%.
In the case of `CN(C)CCNc1c(-c2ccccc2)c(=O)c1=O` it was -1.53%; in that of `COc1ccc(OC)c(NC(=O)c2c(C)cn(C)c2CC(=O)O)c1`, -5.28%.
To `CN1CCN(c2ccc(NS(=O)(=O)c3ccc(Br)s3)cc2C(=O)O)CC1` belongs 24%; to `O=C(CCn1nc(C(=O)Nc2ccccc2)ccc1=O)Nc1nccs1`, 1.25%; to `Cc1ccc2nc(CSCC(=O)Nc3nnc(C(C)C)s3)cc(=O)n2c1`, -6.09%.
On to `Cc1ccc(-n2nc(C)c3c(C)cc(OCC(=O)NC(C)C)nc32)cc1`, for which the cytotoxicity at 70.5 h was -1.77%.
`Cc1ccn(CCC(=O)NCc2ccc(C)o2)n1`: the cytotoxicity at 70.5 h was -1.65%.
In the case of `Cc1nc(N2CCN(C)CC2)ncc1C(=O)N1CCN(C)CC1` it was -4.76%; in that of `CCOCCCNC(=O)NCc1c(C)nn(C)c1C`, 22.3%; in that of `Cn1nnc(NCc2ccccc2OCc2ccc(Cl)cc2)n1`, 29.2%.
To `CCN1C(=O)CCCC12CCCN(C(=O)c1sccc1C)C2` (centres undefined) belongs -9.33%.
Regarding `CCN1C(=O)CCCC12CCCN(C(=O)c1occc1C)C2` (centres undefined), the cytotoxicity at 70.5 h is -10.4%.
To `CCN1C(=O)CCCC12CCCN(C(=O)c1cc(C)oc1C)C2` (centres undefined) belongs -9.36%; to `CC(=O)N1CCC2(C1)CN(C(=O)C1CCOC1)C2` (centres undefined), -11.2%; to `COCCNC(=O)c1ccc2ccc(N3CCN(CC4CC4)CC3)n2c1`, 24.5%.
In the case of `CN1[C@H](CN2CCCC2)C[C@@H]2CN(C(=O)c3ccsc3)CC[C@@H]21` it was 11.2%; in that of `O=C(c1cscn1)N1CCC2(CCCN(CCOc3ccccc3)C2)C1` (centres undefined), -19.6%.
In the case of `Cc1ccc(CN2C[C@H]3C[C@H](C(=O)NCC4CC4)N(C)[C@H]3C2)o1` it was -12.6%; in that of `Cc1ccc(C(=O)N2CCC3(CCC(C(=O)NCC4CC4)O3)CC2)o1` (centres undefined), -12.5%.
Take `CC[C@@H]1N(Cc2cc(OC)cc(OC)c2)CCC[C@]12CCC(=O)N2C`: the cytotoxicity at 70.5 h is -16.6%.
On to `CN(C)CC(=O)N1CCC2(CC1)CN(Cc1cccnc1)C(=O)CO2`, for which the cytotoxicity at 70.5 h amounted to 17.2%.
`COCCN1CCC2(CCN(C(=O)c3ccc(F)cc3)CC2)C1=O`: the cytotoxicity at 70.5 h was determined as 18.4%.
In the case of `O=C(NC1CC1)N1CC[C@@H](O)[C@@H]1Cc1ccccc1` it was 0.741%; in that of `NC(=O)N1CC[C@H](O)[C@@H]1Cc1ccccc1`, -8.95%; in that of `CN(C)CCN1C(=O)CCC12CCN(C(=O)CC1CC1)CC2`, -6.33%.
To `COCCNC(=O)c1ccc2ccc(N(C)CC3CC3)n2c1` belongs -5.92%.
Turning to `COCC(=O)N1CCN(C)c2ncccc2C1`, the cytotoxicity at 70.5 h is -0.482%.
`CN(C)C(=O)N1CCN(C)c2ncccc2C1`: the cytotoxicity at 70.5 h is -7.19%.
In the case of `Cc1csc([C@H]2C[C@@H]3CCN(Cc4cnn(C)c4)C[C@H]3O2)n1` it was -7.09%; in that of `O=C(c1cccs1)N1CCCn2c(nc(CN3CCCC3)cc2=O)C1`, -0.229%.
To `O=C(c1ccoc1)N1C[C@H]2CC[C@@]3(N=C(c4ccccc4)NC3=O)[C@H]2C1` belongs 0.375%.
Turning to `Cc1cccc(CN2C[C@@H]3CN(C(=O)c4ccnnc4)C[C@@H]3C2=O)c1`, the cytotoxicity at 70.5 h was -2.38%.
In the case of `CC(=O)N1CCOC2(CCCN(Cc3ccc(N(C)C)cc3)C2)C1` (centres undefined) it was -2.02%; in that of `CC(=O)NCC(=O)NCC1Cn2nnc(-c3cccc(F)c3)c2CO1` (centres undefined), -0.435%; in that of `CCN1C[C@@H]2CN(C(=O)c3ccsc3)C[C@@H]2C1=O`, -0.46%.
In the case of `Cc1cccc(CN2CCCC3(CCN(c4cccnc4)C3=O)C2)n1` (centres undefined), the cytotoxicity at 70.5 h was -3.53%.
To `Cc1cccc(CN2C[C@@H]3CN(C(=O)c4conc4C)C[C@@H]3C2=O)c1` belongs -3.16%; to `CC(=O)N1CC2(CCN(C(=O)c3ccoc3)C2)C1`, -2.66%.
Consider `O=C(c1ccccc1F)N1CC2(CCNCC2)c2cc(Cl)ccc21`, for which the cytotoxicity at 70.5 h was -9.74%.
To `COC(=O)N1CC2(CCNCC2)c2cc(Cl)ccc21` belongs -7.27%.
Regarding `C[C@@H](N)C(=O)N1CC2(CCNCC2)c2cc(Cl)ccc21`, the cytotoxicity at 70.5 h is 0.763%.
Turning to `Cc1ccc(CN2CCc3nnc(CN4CCCC4=O)n3CC2)o1`, the cytotoxicity at 70.5 h is -3.79%.
In the case of `CNC(=O)CN1CCCC12CCN(C(=O)c1cccc(F)c1)CC2` it was 24.1%.
Regarding `CC[C@@H]1N(Cc2ccc(F)cc2)CCC[C@]12CCC(=O)N2C`, the cytotoxicity at 70.5 h was -9.15%.
Take `COc1ccc(CN2CCC3(CC2)CC(CC(=O)NC(C)C)CO3)cc1` (centres undefined): the cytotoxicity at 70.5 h is -14.4%.
For the molecule `CN(C)C(=O)N1CCC2(CCCN(CCOc3ccccc3)C2)C1` (centres undefined), the cytotoxicity at 70.5 h is -14.6%.
On to `Cn1cccc1C(=O)N1CCC2(CC1)CC(N1CCOCC1)C2`, for which the cytotoxicity at 70.5 h was -12.5%.
In the case of `CN(C)C(=O)CN1C(=O)CCC12CCN(Cc1cccs1)CC2` it was 9.34%.
Turning to `O=C(C1CCCO1)N1C[C@@H]2CCN(c3cnccn3)C[C@@H]2C1` (some centres undefined), the cytotoxicity at 70.5 h was -9.71%.
To `O=C(c1cccc(F)c1)N1CCC2(CC1)CC(N1CCOCC1)C2` belongs -14.8%.
Regarding `CC[C@@H]1N(Cc2ccc(C)s2)CCC[C@]12CCC(=O)N2C`, the cytotoxicity at 70.5 h was -11.2%.
To `CN(C)CCN1CCC2(CCN(C(=O)c3cccc(F)c3)CC2)C1=O` belongs 15.4%; to `CC(=O)N1CCN(Cc2nccs2)CC2(CC(=O)N(C)C2)C1` (centres undefined), -11.2%; to `CC(=O)N1CCN(Cc2cccs2)CC2(CC(=O)N(C)C2)C1` (centres undefined), -9.26%.
For `COc1cccc(CN2CCC3(CC2)CCN(C(=O)[C@@H]2CCCO2)C3)c1`, the cytotoxicity at 70.5 h is -8.83%.
As for `CCN1CCC2(CCN(c3ncccn3)CC2)C1=O`, the cytotoxicity at 70.5 h was -8.88%.
For the molecule `O=C(CC1CC1)N1CCC2(CC1)CN(Cc1cccnc1)C(=O)CO2`, the cytotoxicity at 70.5 h is -12.2%.
For `Cc1noc(C)c1CN1CCCC2(CCN(CC3CCCC3)C2)C1` (centres undefined), the cytotoxicity at 70.5 h is -3.39%.
On to `c1ccc(N2CCCC3(CCN(Cc4ccsc4)C3)C2)nc1` (centres undefined), for which the cytotoxicity at 70.5 h is -7.47%.
To `Cc1cnc(N2CCC3(CCN(CC4CCCC4)C3=O)CC2)nc1` belongs -11%; to `O=C1N(CC2CCCC2)CCC12CCN(c1ncc(F)cn1)CC2`, -7.22%.
For `CCN1CCOCC12CCN(C(=O)C1CCCC1)CC2`, the cytotoxicity at 70.5 h is -0.25%.
In the case of `C[C@@H]1C(=O)NC[C@H]2CN(Cc3ccc4c(c3)OCO4)C[C@H]21` it was -10.2%; in that of `C[C@H]1C(=O)NC[C@H]2CN(CCc3ccccc3)C[C@H]21`, -9.77%; in that of `Cc1occc1C(=O)N1CCC2(CCCN(Cc3cccs3)C2)C1` (centres undefined), 0.121%.
On to `COc1cccc(CC(=O)N2CCN(C)c3ncccc3C2)c1`, for which the cytotoxicity at 70.5 h was 1.87%.
In the case of `COCC1CN(Cc2ccc(OC)cc2)Cc2nnn(CC3CC3)c21` (centres undefined) it was -4.99%; in that of `Fc1cccc(-c2nnn3c2COC(CNCc2ccsc2)C3)c1` (centres undefined), 0.277%.
`CNC(=O)[C@H]1C[C@@H]2CN(S(=O)(=O)c3cccc(C)c3)C[C@@H]2N1C`: the cytotoxicity at 70.5 h was found to be 2.15%.
To `CNC(=O)[C@H]1C[C@@H]2CN(S(=O)(=O)c3ccc(F)cc3)C[C@@H]2N1C` belongs 5.56%; to `CNC(=O)[C@H]1C[C@@H]2CN(S(=O)(=O)c3ccc(C)cc3)C[C@@H]2N1C`, -1.06%.
To `CNC(=O)[C@H]1C[C@@H]2CN(S(=O)(=O)c3cccc(F)c3)C[C@@H]2N1C` belongs 1.47%; to `CN(C)Cc1cc(=O)n2c(n1)CN(C(=O)Cc1cccs1)CCC2`, 1.23%; to `Cc1ccc2c(c1)C1(CC2)CCN(CC(=O)O)CC1`, 5.44%.
Regarding `O=C([C@H]1COC[C@H]2CN(C3CCCC3)C[C@H]21)N1CCCO1`, the cytotoxicity at 70.5 h is 41.4%.
To `Cc1ccc(CN2C[C@@H]3C[C@H](C(=O)NCC4CC4)N(C)[C@@H]3C2)o1` belongs 10.1%; to `CCc1ccc(CN2CC[C@H]3[C@H]2CC(=O)N3Cc2cccc(C)n2)o1`, -7.64%; to `CN(C)CCN1CCCC12CCN(C(=O)c1ccco1)CC2`, -6.82%.
To `CNC(=O)[C@@H]1C[C@H]2CN(Cc3ccc(C)s3)C[C@H]2N1C(C)=O` belongs -1.67%.
In the case of `Cc1ccccc1C(=O)N1CCC2(CCCN2CCN(C)C)CC1` it was -9.86%.
For the molecule `Cc1cccc(CN2C(=O)CCC23CCNCC3)n1`, the cytotoxicity at 70.5 h was -9.48%.
On to `O=C(Cc1cccnc1)N1CCC2(CC1)CCN(C1CCOCC1)CC2`, for which the cytotoxicity at 70.5 h was -5.53%.
Regarding `CN(C)C(=O)COCc1cncc2c1CCN(Cc1ccccc1)C2`, the cytotoxicity at 70.5 h was -3.3%.
For `O=C(Cc1cccnc1)N1CCC2(CC1)CCN(C1CCOC1)C2` (centres undefined), the cytotoxicity at 70.5 h is 8.42%.
As to `Cn1ccnc1CN1CCC2(CC1)CN(c1ccccn1)CCO2`, the cytotoxicity at 70.5 h turned out to be 8.31%.
In the case of `O=C1CC2(CCN(Cc3ccccn3)C2)CN1c1cccnc1` (centres undefined) it was 1.41%.
In the case of `O=C1N(c2ccsc2)CCC12CCCN(Cc1ccccn1)C2` (centres undefined) it was -4.36%; in that of `Fc1ccc(CN2CCO[C@H]3[C@H](Oc4ccccn4)CC[C@@H]32)cc1`, 7.26%.
To `CC(=O)N1[C@H](Cn2cncn2)C[C@@H]2CN(Cc3ccccn3)CC[C@@H]21` belongs 17.3%.
Consider `CC(C)N(C)[C@@H]1CCN(c2ncccn2)[C@H]1Cc1ccncc1`, for which the cytotoxicity at 70.5 h was 1.38%.
Take `CN1CCN(Cc2ccncc2)C(=O)C12CCN(Cc1ccsc1)CC2`: the cytotoxicity at 70.5 h was determined as 2.26%.
In the case of `Cc1cccc(CN2CCO[C@H]3[C@H](Oc4ccccn4)CC[C@@H]32)n1` it was -1.62%.
